Some results are limits rather than exact numbers.

In one assay the test system is HCV 1b genotype. In words: HCV Replicon assay (HCV-neo replicon cells, wild-type). The assay is classed as cell-based. The conditions noted are these: HCV 1b genotype replicon; range class A-D; read-out: 1b EC50 (in μM or range). The protocol: An HCV Replicon assay was utilized in the present disclosure, and was prepared, conducted and validated as described in commonly owned PCT/US2006/022197 and in O′Boyle et. al. Antimicrob Agents Chemother, 2005 April; 49(4):1346-53. Assay methods incorporating luciferase reporters have also been used as described (Apath.com).
HCV-neo replicon cells and replicon cells containing mutations in the NS5A region were used to test the currently described family of compounds. The compounds were determined to have more than 10-fold less inhibitory activity on cells containing mutations than wild-type cells. Thus, the compounds of the present disclosure can be effective in inhibiting the function of the HCV NS5A protein and are understood to be as effective in combinations as previously described in application PCT/US2006/022197 and commonly owned WO/04014852. Further, the compounds of the present disclosure can be effective against the HCV 1b genotype. It should also be understood that the compounds of the present disclosure can inhibit multiple genotypes of HCV. […] In one embodiment, compounds of the present disclosure are inhibitory versus 1a, 1b, 2a, 2b, 3a, 4a, and 5a genotypes.
(Replicon systems follow genome replication, usually without infectious particles.)
With `CC(=O)N1CCN(C(C(=O)N2CCC[C@H]2C(=O)Nc2ccc(C#Cc3ccc(NC(=O)[C@@H]4CCCN4C(=O)C(c4ccccc4)N4CCN(C(C)=O)CC4)cc3)cc2)c2ccccc2)CC1` (stereo partly drawn) [VN49, (2S,2′S)-N,N′-(1,2-ethynediyldi-4,1-phenylene)bis(1-((4-acetyl-1-piperazinyl)(phenyl)acetyl)-2-pyrrolidinecarboxamide)], the EC50 is 0.00457 to 0.099 µM. For `CN(C)C(C)(C(=O)N1CCC[C@H]1C(=O)Nc1ccc(C#Cc2ccc(NC(=O)[C@@H]3CCCN3C(=O)C(C)(c3ccccc3)N(C)C)cc2)cc1)c1ccccc1` (stereo partly drawn) [VN38, (2S,2′S)-N,N′-(1,2-ethynediyldi-4,1-phenylene)bis(1-(2-(dimethylamino)-2-phenylpropanoyl)-2-pyrrolidinecarboxamide)], the EC50 is less than 0.00457 µM.

The same assay, now with this note: Hepatitis C virus, HCV 1b genotype replicon; range class A-D; read-out: 1b EC50 (in μM or range).
In the case of `O=C(Nc1ccc(C#Cc2ccc(NC(=O)[C@@H]3CCCN3C(=O)c3nc(Cl)cc4ccccc34)cc2)cc1)[C@@H]1CCCN1C(=O)Cc1cccnc1` [Example D40, (2S)-1-((3-Chloro-1-isoquinolinyl)carbonyl)-N-(4-((4-((((2S)-1-(3-pyridinylacetyl)-2-pyrrolidinyl)carbonyl)amino)phenyl)ethynyl)phenyl)-2-pyrrolidinecarboxamide], the EC50 lay within 0.00457 to 0.099 µM.

With `CC(=O)N[C@H](C)C(=O)N1CCC[C@H]1C(=O)Nc1ccc(C#Cc2ccc(NC(=O)[C@@H]3CCCN3C(=O)[C@@H](C)NC(C)=O)cc2)cc1` [VN14, (2S,2′S)-N,N′-(1,2-ethynediyldi-4,1-phenylene)bis(1-((2R)-2-acetamidopropanoyl)-2-pyrrolidinecarboxamide)], the concentration giving a half-maximal response (EC50) is 0.00457 to 0.099 µM. The same measure, in the same setting: the result for `O=C(Nc1ccc(C#Cc2ccc(NC(=O)[C@@H]3CCCN3C(=O)Cc3ccccc3)cc2)cc1)[C@@H]1CCCN1C(=O)Cc1ccccc1` [Example D2, (2S,2′S)-N,N′-(1,2-ethynediyldi-4,1-phenylene)bis(1-(phenylacetyl)-2-pyrrolidinecarboxamide)] reads less than 0.00457 µM; that for `O=C(Nc1ccc(C#Cc2ccc(NC(=O)[C@@H]3CCCN3C(=O)[C@H]3CCCO3)cc2)cc1)C1CC1` [Example D6, N-(4-((4-((cyclopropylcarbonyl)amino)phenyl)ethynyl)phenyl)-1-((2R)-tetrahydro-2-furanylcarbonyl)-L-prolinamide], 0.1 to 0.999 µM; that for `O=C(Nc1ccc(C#Cc2ccc(NC(=O)[C@@H]3CCCN3C(=O)c3nc(Cl)cc4ccccc34)cc2)cc1)[C@@H]1CCCN1C(=O)c1nc(Cl)cc2ccccc12` [Example D31, (2S,2′S)-N,N′-(1,2-ethynediyldi-4,1-phenylene)bis(1-((3-chloro-1-isoquinolinyl)carbonyl)-2-pyrrolidinecarboxamide)], 0.00457 to 0.099 µM. Still for that read-out and setting: the result for `C[C@@H](C(=O)N1CCC[C@H]1C(=O)Nc1ccc(C#Cc2ccc(NC(=O)[C@@H]3CCCN3C(=O)[C@H](C)c3ccccc3)cc2)cc1)c1ccccc1` [VN9, (2S,2′S)-N,N′-(1,2-ethynediyldi-4,1-phenylene)bis(1-((2R)-2-phenylpropanoyl)-2-pyrrolidinecarboxamide)] reads less than 0.00457 µM; that for `O=C(Nc1ccc(C#Cc2ccc(NC(=O)[C@@H]3CCCN3C(=O)c3nccn3Cc3ccccc3)cc2)cc1)[C@@H]1CCCN1C(=O)c1nccn1Cc1ccccc1` [Example D29, (2S,2′S)-N,N′-(1,2-ethynediyldi-4,1-phenylene)bis(1-((1-benzyl-1H-imidazol-2-yl)carbonyl)-2-pyrrolidinecarboxamide)], 0.1 to 0.999 µM.

In the case of `O=C(Nc1ccc(C#Cc2ccc(NC(=O)[C@@H]3CCCN3C(=O)[C@@H](c3ccccc3)N3CCOCC3)cc2)cc1)[C@@H]1CCCN1C(=O)[C@@H](c1ccccc1)N1CCOCC1` [VN13, (2S,2′S)-N,N′-(1,2-ethynediyldi-4,1-phenylene)bis(1-((2R)-2-(4-morpholinyl)-2-phenylacetyl)-2-pyrrolidinecarboxamide)], the EC50 was less than 0.00457 µM. The same measure, in the same setting: the result for `O=C(Nc1ccc(C#Cc2ccc(NC(=O)[C@@H]3CCCN3C(=O)Cc3ccccc3)cc2)cc1)[C@H]1CCCO1` [Example D17, 1-(Phenylacetyl)-N-(4-((4-(((2R)-tetrahydro-2-furanylcarbonyl)amino)phenyl)ethynyl)phenyl)-L-prolinamide] reads 0.1 to 0.999 µM.

Take `CN(C)[C@@H](C(=O)N1CCC[C@H]1C(=O)Nc1ccc(C#Cc2ccc(NC(=O)[C@@H]3CCCN3C(=O)[C@@H](c3ccc(F)cc3)N(C)C)cc2)cc1)c1ccc(F)cc1` [Example D36, (2S,2′S)-N,N′-(1,2-ethynediyldi-4,1-phenylene)bis(1-((2R)-2-(dimethylamino)-2-(4-fluorophenyl)acetyl)-2-pyrrolidinecarboxamide)]: the EC50 is less than 0.00457 µM. Still for that read-out and setting: the result for `COc1cccc2c(C(=O)N3CCC[C@H]3C(=O)Nc3ccc(C#Cc4ccc(NC(=O)[C@@H]5CCCN5C(=O)c5nc(Cl)cc6c(OC)cccc56)cc4)cc3)nc(Cl)cc12` [Example D33, (2S,2′S)-N,N′-(1,2-ethynediyldi-4,1-phenylene)bis(1-((3-chloro-5-methoxy-1-isoquinolinyl)carbonyl)-2-pyrrolidinecarboxamide)] reads 0.00457 to 0.099 µM; that for `C[C@@](O)(C(=O)N1CCC[C@H]1C(=O)Nc1ccc(C#Cc2ccc(NC(=O)[C@@H]3CCCN3C(=O)[C@@](C)(O)c3ccccc3)nc2)cn1)c1ccccc1` [Example D51, (2S,2′S)-N,N′-(1,2-ethynediyldi-5,2-pyridinediyl)bis(1-((2S)-2-hydroxy-2-phenylpropanoyl)-2-pyrrolidinecarboxamide)], less than 0.00457 µM; that for `O=C(Nc1ccc(C#Cc2ccc(NC(=O)[C@@H]3CCCN3C(=O)[C@@H](O)c3ccccc3)cc2)cc1)[C@@H]1CCCN1C(=O)[C@@H](O)c1ccccc1` [Example D41, (2S,2′S)-N,N′-(1,2-ethynediyldi-4,1-phenylene)bis(1-((2S)-2-hydroxy-2-phenylacetyl)-2-pyrrolidinecarboxamide)], less than 0.00457 µM.

Still in this assay, the particulars now being: Hepatitis C virus, HCV 1b genotype replicon; read-out: 1b EC50 (in μM or range).
As to `CC(=O)N1CCC[C@H]1C(=O)Nc1ccc(C#Cc2ccc(NC(=O)[C@@H]3CCCN3C(=O)c3cccc4cccnc34)nc2)cc1` [Example D58, (2S)-1-Acetyl-N-(4-((6-((((2S)-1-(8-quinolinylcarbonyl)-2-pyrrolidinyl)carbonyl)amino)-3-pyridinyl)ethynyl)phenyl)-2-pyrrolidinecarboxamide], the EC50 was greater than 10 µM. Take `O=C(Nc1ccc(C#Cc2ccc(NC(=O)[C@@H]3CCCN3C(=O)C(c3ccccc3)N3CC[C@H](O)C3)cc2)cc1)[C@@H]1CCCN1C(=O)C(c1ccccc1)N1CC[C@H](O)C1` (stereo partly drawn) [VN50, (2S,2′S)-N,N′-(1,2-ethynediyldi-4,1-phenylene)bis(1-(((3S)-3-hydroxy-1-pyrrolidinyl)(phenyl)acetyl)-2-pyrrolidinecarboxamide)]: the EC50 amounted to 0.0005 µM.

For `CC(=O)N1CCC[C@H]1C(=O)Nc1ccc(C#Cc2ccc(NC(=O)[C@@H]3CCCCN3C(=O)OCc3ccccc3)cc2)cc1` [Example D11, Benzyl (2S)-2-((4-((4-((1-acetyl-L-prolyl)amino)phenyl)ethynyl)phenyl)carbamoyl)-1-piperidinecarboxylate], the EC50 worked out at 0.59 µM. Same read-out and setting: the result for `O=C(Nc1ccc(C#Cc2ccc(NC(=O)[C@@H]3CCCN3C(=O)[C@@H](O)c3ccccc3)cc2)cc1)[C@@H]1CCCN1C(=O)c1nc(Cl)cc2ccccc12` [Example D42, (2S)-1-((3-Chloro-1-isoquinolinyl)carbonyl)-N-(4-((4-((((2S)-1-((2S)-2-hydroxy-2-phenylacetyl)-2-pyrrolidinyl)carbonyl)amino)phenyl)ethynyl)phenyl)-2-pyrrolidinecarboxamide] reads 0.017 µM.

A word on the EC50: it is the concentration at which the effect is half-maximal.
